Measurements from US10745382B2 (BRISTOL-MYERS SQUIBB COMPANY, priority 2015, dated 2020).

Target: T1, PD-1/PD-L1 (Homo sapiens, UniProt Q9NZQ7)
T1 construct: made in house; host or cells: HEK293T
Test: PD-1/PD-L1 Homogenous Time-Resolved Fluorescence (HTRF) binding assay
Details: PD-L1-His 10 nM, PD-1-Ig 20 nM; value given as range class; read-out: Range or IC50
Procedure, shortened: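 Detection by europium cryptate anti-Ig plus APC anti-His (1 nM and 20 nM final) with HTRF signal. Buffer was dPBS, 0.1% BSA, 0.05% Tween-20.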

T1 sequence (Q9NZQ7 with tags, fused parts or gaps): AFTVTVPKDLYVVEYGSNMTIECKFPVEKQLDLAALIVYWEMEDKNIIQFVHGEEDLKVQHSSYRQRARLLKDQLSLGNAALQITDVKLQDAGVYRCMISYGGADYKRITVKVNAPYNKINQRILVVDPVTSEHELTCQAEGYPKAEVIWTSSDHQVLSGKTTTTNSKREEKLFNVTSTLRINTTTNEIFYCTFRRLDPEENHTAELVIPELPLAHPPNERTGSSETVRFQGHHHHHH

Compound	IC50
CC(=O)NC1CCN(CCCOc2cccc(-c3cccc(COc4cc(OCc5cncc(C#N)c5)c(CO)cc4Cl)c3C)c2Cl)C1 (stereo not shown) [Example 2021, N-(1-(3-((2-chloro-3′-((2-chloro-5-((5-cyanopyridin-3-yl)methoxy)-4-(hydroxymethyl)phenoxy)methyl)-2′-methyl-[1,1′-biphenyl]-3-yl)oxy)propyl)pyrrolidin-3-yl)acetamide]	0.21 to 10 nM
CC(=O)N[C@@H]1CCN(CCCOc2cccc(-c3cccc(COc4cc(OCc5cncc(C#N)c5)c(CN[C@](C)(CO)C(=O)O)cc4Cl)c3C)c2Cl)C1 [Example 2022, (R)-2-((4-((3′-(3-((R)-3-acetamidopyrrolidin-1-yl)propoxy)-2′-chloro-2-methyl-[1,1′-biphenyl]-3-yl)methoxy)-5-chloro-2-((5-cyanopyridin-3-yl)methoxy)benzyl)amino)-3-hydroxy-2-methylpropanoic Acid]	0.21 to 10 nM
Cc1c(COc2cc(OCc3cncc(C#N)c3)c(CN[C@](C)(CO)C(=O)O)cc2Cl)cccc1-c1cccc(OCCCN[C@](C)(CO)C(=O)O)c1Cl [Example 2023, (R)-2-((3-((3′-((4-((((R)-2-carboxy-1-hydroxypropan-2-yl)amino)methyl)-2-chloro-5-((5-cyanopyridin-3-yl)methoxy)phenoxy)methyl)-2-chloro-2′-methyl-[1,1′-biphenyl]-3-yl)oxy)propyl)amino)-3-hydroxy-2-methylpropanoic Acid]	0.21 to 10 nM
Cc1c(COc2cc(OCc3cncc(C#N)c3)c(CN[C@](C)(CO)C(=O)O)cc2Cl)cccc1-c1cccc(OCCCN(C)C[C@H](O)CO)c1Cl [Example 2024, (R)-2-((5-chloro-4-((2′-chloro-3′-(3-(((S)-2,3-dihydroxypropyl)(methyl)amino)propoxy)-2-methyl-[1,1′-biphenyl]-3-yl)methoxy)-2-((5-cyanopyridin-3-yl)methoxy)benzyl)amino)-3-hydroxy-2-methylpropanoic Acid]	0.21 to 10 nM
Cc1c(COc2cc(OCc3cncc(C#N)c3)c(CO)cc2Cl)cccc1-c1cccc(OCCCN(C)C[C@H](O)CO)c1Cl [Example 2025, (S)-5-((4-chloro-5-((2′-chloro-3′-(3-((2,3-dihydroxypropyl)(methyl)amino)propoxy)-2-methyl-[1,1′-biphenyl]-3-yl)methoxy)-2-(hydroxymethyl)phenoxy)methyl)nicotinonitrile]	0.21 to 10 nM
COC(=O)C1CCN(CCCOc2cccc(-c3cccc(COc4cc(OCc5cncc(C#N)c5)c(CNC[C@H](O)CO)cc4Cl)c3C)c2Cl)CC1 [Example 2027, (S)-methyl 1-(3-((2-chloro-3′-((2-chloro-5-((5-cyanopyridin-3-yl)methoxy)-4-(((2,3-dihydroxypropyl)amino)methyl)phenoxy)methyl)-2′-methyl-[1,1′-biphenyl]-3-yl)oxy)propyl)piperidine-4-carboxylate]	0.21 to 10 nM
Cc1c(COc2cc(OCc3cncc(C#N)c3)c(CNC[C@H](O)CO)cc2Cl)cccc1-c1cccc(OCCCN2CC(N(C)C)C2)c1Cl [Example 2028, (S)-5-((4-chloro-5-((2′-chloro-3′-(3-(3-(dimethylamino)azetidin-1-yl)propoxy)-2-methyl-[1,1′-biphenyl]-3-yl)methoxy)-2-(((2,3-dihydroxypropyl)amino)methyl)phenoxy)methyl)nicotinonitrile]	0.21 to 10 nM
Cc1c(COc2cc(OCc3cncc(C#N)c3)c(CNC[C@H](O)CO)cc2Cl)cccc1-c1cccc(OCCCN(C)C[C@H](O)CO)c1Cl [Example 2029, 5-((4-chloro-5-((2′-chloro-3′-(3-(((S)-2,3-dihydroxypropyl)(methyl)amino)propoxy)-2-methyl-[1,1′-biphenyl]-3-yl)methoxy)-2-((((S)-2,3-dihydroxypropyl)amino)methyl)phenoxy)methyl)nicotinonitrile]	0.21 to 10 nM
Cc1c(COc2cc(OCc3cncc(C#N)c3)c(CNC[C@H](O)CO)cc2Cl)cccc1-c1cccc(OCCCN2CC[C@H](O)[C@@H](O)C2)c1Cl [Example 2030, 5-((4-chloro-5-((2′-chloro-3′-(3-((3S,4S)-3,4-dihydroxypiperidin-1-yl)propoxy)-2-methyl-[1,1′-biphenyl]-3-yl)methoxy)-2-((((S)-2,3-dihydroxypropyl)amino)methyl)phenoxy)methyl)nicotinonitrile]	0.21 to 10 nM
Cc1c(COc2cc(OCc3cncc(C#N)c3)c(CNC[C@H](O)CO)cc2Cl)cccc1-c1cccc(OCCCN2CC[C@H](CO)[C@H](O)C2)c1Cl [Example 2031, 5-((4-chloro-5-((2′-chloro-3′-(3-((3 S,4R)-3-hydroxy-4-(hydroxymethyl)piperidin-1-yl)propoxy)-2-methyl-[1,1′-biphenyl]-3-yl)methoxy)-2-((((S)-2,3-dihydroxypropyl)amino)methyl)phenoxy)methyl)nicotinonitrile]	0.21 to 10 nM
Cc1c(COc2cc(OCc3cncc(C#N)c3)c(CNC[C@H](O)CO)cc2Cl)cccc1-c1cccc(OCCCN(C)CCC(N)=O)c1Cl [Example 2032, (S)-3-((3-((2-chloro-3′-((2-chloro-5-((5-cyanopyridin-3-yl)methoxy)-4-(((2,3-dihydroxypropyl)amino)methyl)phenoxy)methyl)-2′-methyl-[1,1′-biphenyl]-3-yl)oxy)propyl)(methyl)amino)propanamide]	0.21 to 10 nM
N#Cc1cncc(COc2cc(OCc3cccc(-c4cccc(OCCCNC[C@H](O)CO)c4Cl)c3Cl)c(Cl)cc2CNC[C@H](O)CO)c1 [Example 2033, 5-((4-chloro-5-((2,2′-dichloro-3′-(3-(((S)-2,3-dihydroxypropyl)amino)propoxy)-[1,1′-biphenyl]-3-yl)methoxy)-2-((((S)-2,3-dihydroxypropyl)amino)methyl)phenoxy)methyl)nicotinonitrile]	0.21 to 10 nM
N#Cc1cncc(COc2cc(OCc3cccc(-c4cccc(OCCCN5CC[C@@H](O)C5)c4Cl)c3Cl)c(Cl)cc2CNC[C@H](O)CO)c1 [Example 2034, 5-((4-chloro-5-((2,2′-dichloro-3′-(3-((R)-3-hydroxypyrrolidin-1-yl)propoxy)-[1,1′-biphenyl]-3-yl)methoxy)-2-((((S)-2,3-dihydroxypropyl)amino)methyl)phenoxy)methyl)nicotinonitrile]	0.21 to 10 nM
Cc1c(COc2cc(OCc3cncc(C#N)c3)c(CNC(CO)CO)cc2Cl)cccc1-c1cccc(OCCCN2CC[C@@H](O)C2)c1Cl [Example 2035, (R)-5-((4-chloro-5-((2′-chloro-3′-(3-(3-hydroxypyrrolidin-1-yl)propoxy)-2-methyl-[1,1′-biphenyl]-3-yl)methoxy)-2-(((1,3-dihydroxypropan-2-yl)amino)methyl)phenoxy)methyl)nicotinonitrile]	0.21 to 10 nM
Cc1c(COc2cc(OCc3cncc(C#N)c3)c(CNC(CO)CO)cc2Cl)cccc1-c1cccc(OCCCNC[C@H](O)CO)c1Cl [Example 2036, (S)-5-((4-chloro-5-((2′-chloro-3′-(3-((2,3-dihydroxypropyl)amino)propoxy)-2-methyl-[1,1′-biphenyl]-3-yl)methoxy)-2-(((1,3-dihydroxypropan-2-yl)amino)methyl)phenoxy)methyl)nicotinonitrile]	0.21 to 10 nM
Cc1c(COc2cc(OCc3cncc(C#N)c3)c(CNC(CO)CO)cc2Cl)cccc1-c1cccc(OCCCNCCc2cccnc2)c1Cl [Example 2037, 5-((4-chloro-5-((2′-chloro-2-methyl-3′-(3-((2-(pyridin-3-yl)ethyl)amino)propoxy)-[1,1′-biphenyl]-3-yl)methoxy)-2-(((1,3-dihydroxypropan-2-yl)amino)methyl)phenoxy)methyl)nicotinonitrile]	0.21 to 10 nM
